Each structure is given as a SMILES string. pKi: −log10 of the molar value. Structures can show the parent of a compound that is named as a salt.

Chain of rhesus (Macacca Mulatta) H3 receptor (Q865E1 1-445): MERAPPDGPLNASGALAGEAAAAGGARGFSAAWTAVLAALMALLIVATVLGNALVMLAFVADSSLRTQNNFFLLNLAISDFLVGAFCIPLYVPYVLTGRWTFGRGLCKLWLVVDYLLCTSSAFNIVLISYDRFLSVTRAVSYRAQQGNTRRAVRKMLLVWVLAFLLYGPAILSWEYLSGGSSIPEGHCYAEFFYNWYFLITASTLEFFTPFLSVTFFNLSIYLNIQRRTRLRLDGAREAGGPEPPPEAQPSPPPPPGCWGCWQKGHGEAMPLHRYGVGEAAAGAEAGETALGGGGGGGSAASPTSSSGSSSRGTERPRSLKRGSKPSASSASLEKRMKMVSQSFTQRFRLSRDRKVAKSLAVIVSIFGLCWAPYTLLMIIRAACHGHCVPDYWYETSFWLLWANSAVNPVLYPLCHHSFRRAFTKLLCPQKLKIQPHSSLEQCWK

For this assay, the target named is rhesus (Macacca Mulatta) H3 receptor (Macaca mulatta, UniProt Q865E1). The assay can be described thus: Rhesus H3 radioligand binding assay ([3H]-Methylhistamine displacement, WGA SPA beads). Further details: species or system rhesus monkey (Macacca Mulatta). The following applies: [3H]-Methylhistamine 2 nM, rhesus H3 membranes, 25° C., 1 hour; Cheng-Prusoff. Here is the method:
Rhesus H3 membranes were prepared from the Flp-In T-REx 293 Cell Line (Invitrogen) stably transfected with pcDNA5/FRT/TO (Invitrogen) containing the rhesus monkey (Macacca Mulatta) 445 amino acid H3 receptor. (Genbank #AY231164). Stably transfected cultures were amplified in tissue culture flasks by standard tissue culture methods and induced to express rhesus H3 by exposure to 500 ng/ml tetracycline (Cellgro) for 24 hours. After induction, cells were dissociated from flasks utilizing Cell Stripper (Cellgro). Cells were centrifuged (1K×g, 5 min) and pellet frozen in an ethanol-dry ice bath to disrupt cell membranes. Frozen cell pellet was re-suspended in 5 mM HEPES (pH 7.4, Invitrogen) at 10 ml/1000 cm2 of harvested cells. The cell suspension was drawn through an 18 gauge needle (2-3×) followed by a 23 gauge needle (2-3×) to further disrupt cell membranes. The cell suspension was centrifuged (40K×g, 30 min). Cell membrane pellet was re-suspended in 5 mM HEPES (pH 7.4, Invitrogen) at a final protein concentration of 10 mg/ml. Rhesus H3 membranes were stored under liquid nitrogen prior to use in [3H]-Methylhistamine and GTPγS radioligand binding assays.
Rhesus H3 radioligand binding assay was performed using rhesus H3 receptor membranes (prepared as described above), [3H]-Methylhistamine (Perkin Elmer) and WGA SPA beads (wheat germ agglutinin scintillation proximity assay) beads (Amersham). The assay was performed in 96-well Opti-Plates (Packard). Each reaction contained 50 μl rhesus H3 membranes (20-30 μg total protein), 50 μl WGA SPA beads (0.1 μg) and 50 μl of 83 Ci/mmol [^3H]-Methylhistamine (final concentration 2 nM) and 50 μl of tested compound. The compounds of this invention and/or vehicle were diluted with binding buffer from 10 mM DMSO stocks. Assay plates were sealed with TopSeal (Perkin Elmer) and mixed on shaker (25° C., 1 hour). Assay plates were read on TopCount scintillation counter (Packard). Results were analyzed by Hill transformation and Ki values were determined by Cheng-Prusoff equation.
The pKi is the Ki on a negative log10 scale, so that one unit is a factor of ten. For the compound `C[C@H]1CCCN1[C@H]1CCN(c2ncc(N3CCC4(CCOCC4)C3=O)cn2)C1` [Example 16, 2-[2-((2S,3′S)-2-Methyl-[1,3′]bipyrrolidinyl-1′-yl)-pyrimidin-5-yl]-8-oxa-2-aza-spiro[4.5]decan-1-one], the pKi is 8.38. Compound `C[C@H]1CCCN1[C@H]1CCN(c2ccc(N3CCC4(CCOCC4)C3=O)nc2)C1` [Example 13, 2-[5-((2S,3′S)-2-Methyl-[1,3′]bipyrrolidinyl-1′-yl)-pyridin-2-yl]-8-oxa-2-aza-spiro[4.5]decan-1-one] showed a pKi of 7.65.

Turning to `Cc1nc(N2CC[C@H](N3CCC[C@@H]3C)C2)ccc1N1CCC2(CCN(C(=O)OC(C)(C)C)CC2)C1=O` [Example 15, 2-[2-Methyl-6-((2S,3′S)-2-methyl-[1,3′]bipyrrolidinyl-1′-yl)-pyridin-3-yl]-1-oxo-2,8-diaza-spiro[4.5]decane-8-carboxylic acid tert-butyl ester], the pKi was 7.02. With `C[C@H]1CCCN1[C@H]1CCN(c2cnc(N3CCC4(CCN(C(=O)OC(C)(C)C)CC4)C3=O)cn2)C1` [Example 14, 2-[5-((2S,3′S)-2-Methyl-[1,3′]bipyrrolidinyl-1′-yl)-pyrazin-2-yl]-1-oxo-2,8-diaza-spiro[4.5]decane-8-carboxylic acid tert-butyl ester] the figure was 6.98. With `C[C@H]1CCCN1[C@H]1CCN(c2ncc(N3CCC4(CCN(C(=O)OC(C)(C)C)CC4)C3=O)cn2)C1` [Example 12, 2-[2-((2S,3′S)-2-Methyl-[1,3′]bipyrrolidinyl-1′-yl)-pyrimidin-5-yl]-1-oxo-2,8-diaza-spiro[4.5]decane-8-carboxylic acid tert-butyl ester] the figure was 7.31; with `C[C@H]1CCCN1[C@H]1CCN(c2cnc(N3CCC4(CCNCC4)C3=O)cn2)C1` [Example 10, 2-[5-((2S,3′S)-2-Methyl-[1,3′]bipyrrolidinyl-1′-yl)-pyrazin-2-yl]-2,8-diaza-spiro[4.5]decan-1-one], 7.58; with `Cc1nc(N2CC[C@@H](N3CCC[C@@H]3C)C2)ccc1N1CCC2(CCOCC2)C1=O` [Example 1, 2-[2-Methyl-6-((2S,3′R)-2-methyl-[1,3′]bipyrrolidinyl-1′-yl)-pyridin-3-yl]-8-oxa-2-aza-spiro[4.5]decan-1-one], 7.42.

Compound `Cc1nc(N2CC[C@@H](N3CCC[C@@H]3C)C2)ccc1N1CCCC2(CCOCC2)C1=O` [Example 2, 2-[2-Methyl-6-((2S,3′R)-2-methyl-[1,3′]bipyrrolidinyl-1′-yl)-pyridin-3-yl]-9-oxa-2-aza-spiro[5.5]undecan-1-one] showed a pKi of 7.02. `Cc1nc(N2CC[C@@H](N3CCC[C@@H]3C)C2)ccc1N1CCCC2(CCNCC2)C1=O` [Example 9, 2-[2-Methyl-6-((2S,3′R)-2-methyl-[1,3′]bipyrrolidinyl-1′-yl)-pyridin-3-yl]-2,9-diaza-spiro[5.5]undecan-1-one hydrochloride] showed a negative logarithm of the Ki (pKi) of 7.41. In the case of `Cc1nc(N2CC[C@@H](N3CCC[C@@H]3C)C2)ccc1N1CCC2(CCC(O)CC2)C1=O` (stereo partly drawn) [Example 5, 8-Hydroxy-2-[2-methyl-6-((2S,3′R)-2-methyl-[1,3′]bipyrrolidinyl-1′-yl)-pyridin-3-yl]-2-aza-spiro[4.5]decan-1-one], the pKi was 6.57. Take `Cc1nc(N2CC[C@@H](N3CCC[C@@H]3C)C2)ccc1N1CCC2(CCNCC2)C1=O` [Example 8, 2-[2-Methyl-6-((2S,3′R)-2-methyl-[1,3′]bipyrrolidinyl-1′-yl)-pyridin-3-yl]-2,8-diaza-spiro[4.5]decan-1-one hydrochloride]: the pKi was 7.76. Regarding `Cc1nc(N2CC[C@H](N3CCC[C@@H]3C)C2)ccc1N1CCC2(CCOCC2)C1=O` [Example 7, 2-[2-Methyl-6-((2S,3′S)-2-methyl-[1,3′]bipyrrolidinyl-1′-yl)-pyridin-3-yl]-8-oxa-2-aza-spiro[4.5]decan-1-one], the negative logarithm of the Ki (pKi) was 8.15. `Cc1nc(N2CC[C@H](N3CCC[C@@H]3C)C2)ccc1N1CCC2(CCNCC2)C1=O` [Example 11, 2-[2-Methyl-6-((2S,3′S)-2-methyl-[1,3′]bipyrrolidinyl-1′-yl)-pyridin-3-yl]-2,8-diaza-spiro[4.5]decan-1-one]: the negative-log Ki (pKi) was 8.12. Take `Cc1nc(N2CC[C@@H](N3CCC[C@@H]3C)C2)ccc1N1CCC2(CCCCC2)C1=O` [Example 6, 2-[2-Methyl-6-((2S,3′R)-2-methyl-[1,3′]bipyrrolidinyl-1′-yl)-pyridin-3-yl]-2-aza-spiro[4.5]decan-1-one]: the pKi was 7.25.

Source of the values: US9533995B2, “Substituted N-heteroaryl spirolactam bipyrrolidines, preparation and therapeutic use thereof” (SANOFI, priority 2010, dated 2017).
